Experimental data taken from PubChem BioAssay AID248 (DTP/NCI, 2004).
“And” between values parts separate entries of the source, which are not always exact repeats. Equal entries are not always repeated. Toxic doses and inconclusive results are not listed. Rule as the data show it: active = T/C of 150% or more; inactive = T/C below 125%.

Tested on: L1210 leukemia ip in BDF1 mice, survival T/C
Assay: NCI In Vivo Anticancer Drug Screen. Data for tumor model L1210 Leukemia (intraperitoneal) in B6D2F1 (BDF1) mice
Settings: endpoint: mean survival time, higher = longer survival
How it was run: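 Ratio derived from survival: compound-dosed mice over vehicle-dosed mice, all bearing a transplantable tumor.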

[1] = dose: 100.0 mg/kg/injection, schedule: Q01DX009 (ip), vehicle: saline with Tween-80
[2] = dose: 100.0 mg/kg/injection, schedule: Q04DX003 (ip), vehicle: saline with Tween-80
[3] = dose: 200.0 mg/kg/injection, schedule: Q01DX009 (ip), vehicle: saline with Tween-80
[4] = dose: 200.0 mg/kg/injection, schedule: Q04DX003 (ip), vehicle: saline with Tween-80
[5] = dose: 400.0 mg/kg/injection, schedule: Q01DX009 (ip), vehicle: saline with Tween-80
[6] = dose: 400.0 mg/kg/injection, schedule: Q04DX003 (ip), vehicle: saline with Tween-80
[7] = dose: 50.0 mg/kg/injection, schedule: Q01DX001 (ip), vehicle: carboxymethylcellulose (CMC)
[8] = dose: 100.0 mg/kg/injection, schedule: Q01DX001 (ip), vehicle: carboxymethylcellulose (CMC)
[9] = dose: 200.0 mg/kg/injection, schedule: Q01DX001 (ip), vehicle: carboxymethylcellulose (CMC)
[10] = dose: 100.0 mg/kg/injection, schedule: Q01DX001 (ip), vehicle: Klucel (hydroxypropylcellulose) (HPC)
[11] = dose: 200.0 mg/kg/injection, schedule: Q01DX001 (ip), vehicle: Klucel (hydroxypropylcellulose) (HPC)
[12] = dose: 400.0 mg/kg/injection, schedule: Q01DX001 (ip), vehicle: Klucel (hydroxypropylcellulose) (HPC)
[13] = dose: 100.0 mg/kg/injection, schedule: Q04DX003 (ip), vehicle: saline
[14] = dose: 200.0 mg/kg/injection, schedule: Q04DX003 (ip), vehicle: saline
[15] = dose: 400.0 mg/kg/injection, schedule: Q04DX003 (ip), vehicle: saline
[16] = dose: 400.0 mg/kg/injection, schedule: Q01DX001 (ip), vehicle: carboxymethylcellulose (CMC)

Measured: T/C

CCOc1c(Br)cc(Br)cc1C=O
inactive: [1] 97 % of control | [2] 103 % of control | [3] 94 % of control | [4] 109 % of control | [5] 110 % of control | [6] 103 % of control

CC(=O)OC(c1ccnc2ccccc12)C1CC2CCN1CC2 (stereo not drawn)
inactive: [7] 97 % of control | [8] 97 % of control | [9] 95 % of control

CC12CCC(=O)C=C1CCC1C2CCC2(C)C(C(=O)CC(O)(C(F)(F)F)C(F)(F)F)CCC12 (stereo not drawn)
inactive: [10] 94 % of control | [11] 96 % of control | [12] 96 % of control

OC(c1ccc(C2CC2)cc1)(c1ccc(C2CC2)cc1)c1ccc(C2CC2)cc1
inactive: [2] 104 % of control | [4] 102 % of control | [6] 91 % of control

CN=C(Nc1ccccn1)c1ccc(NC(=O)c2ccc(C(=O)Nc3ccc(C(=NC)Nc4ccccn4)cc3)cc2)cc1
inactive: dose: 1.87 mg/kg/injection, schedule: Q01DX015 (ip), vehicle: methylcellulose (MC) 95 % of control | dose: 3.75 mg/kg/injection, schedule: Q01DX015 (ip), vehicle: methylcellulose (MC) 96 % of control | dose: 7.5 mg/kg/injection, schedule: Q01DX015 (ip), vehicle: methylcellulose (MC) 108 % of control | dose: 15.0 mg/kg/injection, schedule: Q01DX015 (ip), vehicle: methylcellulose (MC) 101 % of control

CCN(CC)CC(=O)NCC(C)(CCN1CCCCC1)c1cccc2ccccc12 (stereo not drawn)
inactive: dose: 25.0 mg/kg/injection, schedule: Q01DX009 (ip), vehicle: saline 91 % of control | dose: 50.0 mg/kg/injection, schedule: Q01DX009 (ip), vehicle: saline 93 % of control | [13] 94 % of control

CN(CC#N)/N=N/c1nc[nH]c1C(N)=O
inactive: dose: 50.0 mg/kg/injection, schedule: Q01DX Z (ip), vehicle: carboxymethylcellulose (CMC) 118 % of control | dose: 75.0 mg/kg/injection, schedule: Q01DX Z (ip), vehicle: carboxymethylcellulose (CMC) 107 % of control

O=c1[nH]ccn2cncc12
inactive: [13] 93 % of control | [14] 103 % of control | [15] 106 % of control

O=C(O)CCCCCCCCCCNC(=O)Nc1cccc(C(F)(F)F)c1
inactive: dose: 100.0 mg/kg/injection, schedule: Q01DX001 (ip), vehicle: gum acacia 92 % of control and 96 % of control | dose: 100.0 mg/kg/injection, schedule: Q01DX009 (ip), vehicle: gum acacia 92 % of control | dose: 100.0 mg/kg/injection, schedule: Q04DX002 (ip), vehicle: gum acacia 93 % of control and 88 % of control | dose: 100.0 mg/kg/injection, schedule: Q04DX003 (ip), vehicle: gum acacia 93 % of control and 89 % of control and 90 % of control | dose: 200.0 mg/kg/injection, schedule: Q01DX001 (ip), vehicle: gum acacia 94 % of control and 89 % of control | dose: 200.0 mg/kg/injection, schedule: Q01DX009 (ip), vehicle: gum acacia 93 % of control | dose: 200.0 mg/kg/injection, schedule: Q04DX002 (ip), vehicle: gum acacia 92 % of control and 89 % of control | dose: 200.0 mg/kg/injection, schedule: Q04DX003 (ip), vehicle: gum acacia 93 % of control and 97 % of control and 88 % of control | dose: 400.0 mg/kg/injection, schedule: Q01DX001 (ip), vehicle: gum acacia 92 % of control and 96 % of control | dose: 400.0 mg/kg/injection, schedule: Q01DX009 (ip), vehicle: gum acacia 93 % of control | dose: 400.0 mg/kg/injection, schedule: Q04DX002 (ip), vehicle: gum acacia 86 % of control and 90 % of control | dose: 400.0 mg/kg/injection, schedule: Q04DX003 (ip), vehicle: gum acacia 94 % of control and 88 % of control

CN1C=CC(C(C(N)=O)c2ccccc2)c2ccccc21 (stereo not drawn)
inactive: [1] 95 % of control | [3] 92 % of control | [5] 92 % of control

O=C1OC(=O)C2C3CC(C(Br)C3Br)C12 (stereo not drawn)
inactive: [2] 102 % of control | [4] 98 % of control | [6] 101 % of control

CCOC(=O)C=C1CCP(C)CC1 (stereo not drawn)
inactive: dose: 75.0 mg/kg/injection, schedule: Q01DX001 (ip), vehicle: carboxymethylcellulose (CMC) 103 % of control | dose: 150.0 mg/kg/injection, schedule: Q01DX001 (ip), vehicle: carboxymethylcellulose (CMC) 94 % of control

Cn1c2ccccc2c(=O)c2c(O)cc3c(c21)C=CC(C)(C)O3
inactive: [7] 98 % of control | [8] 90 % of control | [9] 88 % of control | [16] 88 % of control

O=S(CCCl)CCCl
inactive: dose: 0.21 mg/kg/injection, schedule: Q04DX003 (ip), vehicle: Klucel (hydroxypropylcellulose) (HPC) 95 % of control | dose: 0.42 mg/kg/injection, schedule: Q04DX003 (ip), vehicle: Klucel (hydroxypropylcellulose) (HPC) 93 % of control | dose: 0.85 mg/kg/injection, schedule: Q04DX003 (ip), vehicle: Klucel (hydroxypropylcellulose) (HPC) 98 % of control | dose: 0.9 mg/kg/injection, schedule: Q01DX009 (ip), vehicle: Klucel (hydroxypropylcellulose) (HPC) 116 % of control | dose: 1.3 mg/kg/injection, schedule: Q01DX009 (ip), vehicle: Klucel (hydroxypropylcellulose) (HPC) 116 % of control | dose: 2.0 mg/kg/injection, schedule: Q04DX003 (ip), vehicle: Klucel (hydroxypropylcellulose) (HPC) 120 % of control | dose: 2.6 mg/kg/injection, schedule: Q04DX003 (ip), vehicle: Klucel (hydroxypropylcellulose) (HPC) 123 % of control | dose: 6.0 mg/kg/injection, schedule: Q04DX003 (ip), vehicle: Klucel (hydroxypropylcellulose) (HPC) 115 % of control | dose: 8.0 mg/kg/injection, schedule: Q01DX009 (ip), vehicle: Klucel (hydroxypropylcellulose) (HPC) 109 % of control | dose: 8.0 mg/kg/injection, schedule: Q04DX003 (ip), vehicle: Klucel (hydroxypropylcellulose) (HPC) 114 % of control | dose: 12.5 mg/kg/injection, schedule: Q04DX003 (ip), vehicle: Klucel (hydroxypropylcellulose) (HPC) 90 % of control | dose: 50.0 mg/kg/injection, schedule: Q04DX003 (ip), vehicle: Klucel (hydroxypropylcellulose) (HPC) 89 % of control

Nc1cccc(C(=O)c2cccc(N)c2)c1
inactive: [8] 96 % of control | [9] 94 % of control | [16] 88 % of control

C/C(=N\N(C)C)C(=O)OC(C)(C)C
inactive: [13] 107 % of control | [14] 98 % of control | [15] 96 % of control

Nc1c(OCCc2ccccc2)cccc1C(=O)O
inactive: [10] 97 % of control | [11] 96 % of control | [12] 93 % of control

O=c1oc(-c2cccc([N+](=O)[O-])c2)nc2cc(Cl)ccc12
inactive: dose: 50.0 mg/kg/injection, schedule: Q04DX002 (ip), vehicle: saline with Tween-80 90 % of control | dose: 100.0 mg/kg/injection, schedule: Q04DX002 (ip), vehicle: saline with Tween-80 93 % of control | dose: 200.0 mg/kg/injection, schedule: Q04DX002 (ip), vehicle: saline with Tween-80 93 % of control | dose: 400.0 mg/kg/injection, schedule: Q04DX002 (ip), vehicle: saline with Tween-80 107 % of control

COc1ccc(CN2CCCN(Cc3ccc(OC)cc3OC)C2c2ccc(N(C)C)cc2Cl)c(OC)c1
inactive: dose: 50.0 mg/kg/injection, schedule: Q01DX001 (ip), vehicle: saline 97 % of control | dose: 100.0 mg/kg/injection, schedule: Q01DX001 (ip), vehicle: saline 101 % of control | dose: 200.0 mg/kg/injection, schedule: Q01DX001 (ip), vehicle: saline 95 % of control | dose: 400.0 mg/kg/injection, schedule: Q01DX001 (ip), vehicle: saline 95 % of control

CCCCCCC#CC(=O)OCC
inactive: dose: 100.0 mg/kg/injection, schedule: Q04DX002 (ip), vehicle: saline 89 % of control | dose: 200.0 mg/kg/injection, schedule: Q04DX002 (ip), vehicle: saline 104 % of control

Nc1cc2c3c(cccc3c1)C(=O)N(Cc1ccccc1)C2=O
inactive: dose: 75.0 mg/kg/injection, schedule: Q01DX009 (ip), vehicle: Klucel (hydroxypropylcellulose) (HPC) 89 % of control | dose: 150.0 mg/kg/injection, schedule: Q01DX009 (ip), vehicle: Klucel (hydroxypropylcellulose) (HPC) 92 % of control | dose: 300.0 mg/kg/injection, schedule: Q01DX009 (ip), vehicle: Klucel (hydroxypropylcellulose) (HPC) 97 % of control

CCn1cc(C(=O)O)c(=O)c2cc3c(cc21)OCO3
inactive: dose: 100.0 mg/kg/injection, schedule: Q01DX001 (ip), vehicle: other 96 % of control | dose: 200.0 mg/kg/injection, schedule: Q01DX001 (ip), vehicle: other 108 % of control | dose: 400.0 mg/kg/injection, schedule: Q01DX001 (ip), vehicle: other 98 % of control
